Measurements from BindingDB's records for doi:10.1021/jm00403a011 (Bristol Myers Squibb, 1988).

Biological target: D(2) dopamine receptor (Rattus norvegicus, UniProt P61169)
Assay: ChEBML_61437
Description: In vitro antagonistic activity against Dopamine receptor D2 was evaluated for the inhibition of [3H]spiperone binding

D(2) dopamine receptor, sequence (P61169 whole entry): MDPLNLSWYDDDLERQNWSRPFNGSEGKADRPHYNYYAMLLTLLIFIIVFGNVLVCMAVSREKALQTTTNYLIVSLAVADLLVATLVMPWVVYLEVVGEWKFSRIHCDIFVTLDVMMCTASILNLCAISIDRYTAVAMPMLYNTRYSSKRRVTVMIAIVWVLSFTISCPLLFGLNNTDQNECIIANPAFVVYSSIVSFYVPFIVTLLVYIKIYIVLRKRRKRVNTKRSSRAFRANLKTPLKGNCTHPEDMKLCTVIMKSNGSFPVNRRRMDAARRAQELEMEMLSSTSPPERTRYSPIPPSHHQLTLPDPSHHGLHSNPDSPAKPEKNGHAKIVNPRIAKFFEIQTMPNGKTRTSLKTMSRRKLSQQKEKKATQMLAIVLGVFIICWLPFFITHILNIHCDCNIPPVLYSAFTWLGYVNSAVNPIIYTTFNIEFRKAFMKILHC

Structure (SMILES) | IC50
CCN(CC)CCNC(=O)c1cc(Cl)c(N)cc1OC(C)C(C)N=O (configuration not stated) [4-Amino-5-chloro-N-(2-diethylamino-ethyl)-2-(2-hydroxyimino-1-methyl-propoxy)-benzamide] | > 1000 nM
CCN(CC)CCNC(=O)c1cc(Cl)c(N)cc1OCC(C)N=O (configuration not stated) [4-Amino-5-chloro-N-(2-diethylamino-ethyl)-2-(2-hydroxyimino-propoxy)-benzamide] | > 1000 nM
